Like-named read-outs stand apart in the source and are kept apart here.
Experiments:
[1] = target: T1, soluble DRB1*0401 molecules (DR4) (Homo sapiens, UniProt P01903+P01911, A100K/A169T/F76Y/I96L/K127E/L162R/M171V/N62H/P40V/Q125Y/R42H/S133A/S149N/S66Y/V115G/V209L/W38E); format: binding; parameters: key to DR4 binding: +++: high binding affinity; ++: moderate binding affinity; +: low binding affinity; −: no binding; key to Binding to DRB1 *0401: −: no binding/T cell response; +/−: weak binding/T cell response; +: intermediate binding/T cell response; ++: strong binding/T cell response
T1 construct: Soluble HLA class I A*0201 and HLA class II DRA1*0101/DRB1*0101/Ii, DRA1*0101/DRB1*0401/Ii and DRA1*0101/DRB1*0404/Ii molecules were expressed in SC-2 cells; made in house; host or cells: SC-2 cells

[2] = target: T1, soluble DRB1*0401 molecules (DR4); format: binding; parameters: key: −: no binding; +/−: weak binding; +: intermediate binding; ++: strong binding; conditions: individual pp65 15mer, SDS-stability assay
[3] = system: HLA-DRB1*0401-transgenic mice splenocytes; format: in vivo, mouse; parameters: key to DRB1*0401 mice total SC (T cell response) / DRB1*0401 mice CD4+ (T cell response): −: no binding/T cell response; +/−: weak binding/T cell response; +: intermediate binding/T cell response; ++: strong binding/T cell response
[4] = target: T1, soluble DRB1*0401 molecules (DR4); format: binding; parameters: key: +++: high binding affinity; ++: moderate binding affinity; +: low binding affinity; −: no binding; conditions: individual pp65 15mer, SDS-stability assay
[5] = system: PBMC from CMV seropositive donors; format: cell-based, human; conditions: for Frequency in screen (number of refinding/number of donors' expressing the respective HLA type): literature known class I epitopes
[6] = IFN-gamma ELISpot, enriched CD4+ fraction of splenocytes of HLA-DR4 transgenic mice vaccinated with the longer peptide, ex vivo re-stimulation
[7] = IFN-gamma ELISpot, total splenocytes of HLA-DR4 transgenic mice vaccinated with the longer peptide, ex vivo re-stimulation
[8] = direct binding of individual peptides, SDS-stability assay, compared with YAR and HA306-318

Row | Sequence | Binding to DRB1 *0401 ([1]; soluble DRB1*0401 molecules) | DRB1*0401 mice CD4+ (T cell response) [3, 6] | DRB1*0401 mice total SC (T cell response) [3, 7] | further results
1 | QYTPDSTPCHRGDNQ [Peptide 60] | ++ | +/− | ++ | Binding to DRB1*0401 [2]: ++
2 | QRGPQYSEHPTFTSQ [Peptide 358] |  |  |  | DRB1*0401 mice CD4+ (T cell response) ([3]; mouse, in vivo): +/−; DRB1*0401 mice total SC (T cell response) ([3]; mouse, in vivo, sc): ++
3 | LEYRHTWDRHDEGAA [Peptide 379] |  |  |  | Binding to DRB1*0401 [4]: −
4 | EYRHTWDRHDEGAAQ [Peptide 380] | − | − | − | Binding to DRB1*0401 [4]: −
5 | YRHTWDRHDEGAAQG [Peptide 381] | − | − | − | 
6 | ILVSQYTPDSTPCHR [Peptide 56] | ++ | + | ++ | Binding to DRB1*0401 [2]: ++
7 | QNQWKEPDVYYTSAF [Peptide 172] |  |  |  | Binding to DRB1*0401 [4]: −
8 | HDEGAAQGDDDVWTS [Peptide 388] |  |  |  | Binding to DRB1*0401 [4]: −
9 | TRATKMQVIGDQYVK [Peptide 211] |  |  |  | Induction of IFN-gamma secretion in T cells / PBMC from CMV seropositive donors [5]: can induce functional, IFN-gamma secreting T cells in humans
10 | YSEHPTFTSQYRIQG [Peptide 363] |  |  |  | DRB1*0401 mice CD4+ (T cell response) ([3]; mouse, in vivo): ++; DRB1*0401 mice total SC (T cell response) ([3]; mouse, in vivo, sc): +
11 | NFLLPDAQSIQAAAAG [Peptide 1241] |  |  |  | DR4 binding [1, 8]: ++
12 | QYSEHPTFTSQYRIQ [Peptide 362] |  |  |  | DRB1*0401 mice CD4+ (T cell response) ([3]; mouse, in vivo): ++; DRB1*0401 mice total SC (T cell response) ([3]; mouse, in vivo, sc): +
13 | TPRVTGGGAMAGAST [Peptide 417] |  |  |  | Recognition by T cells in HLA context other than described [5]: recognized by T cells in a different HLA context than known before
14 | LKAESTVAPEEDTDE [Peptide 456] |  | − | − | 
15 | HTWDRHDEGAAQGDD [Peptide 383] | +/− | − | − | Binding to DRB1*0401 [2]: +/−
16 | RIFAELEGV |  |  |  | Frequency in screen (number of refinding/number of donors' expressing the respective HLA type) [5]: 1/9
17 | EFFWDANDIYRIFAE [Peptide 512] |  |  |  | Binding to DRB1*0401 [4]: −
18 | MQVIGDQYVKVYLES [Peptide 216] |  |  |  | Induction of IFN-gamma secretion in T cells / PBMC from CMV seropositive donors [5]: can induce functional, IFN-gamma secreting T cells in humans
19 | PTFTSQYRIQGKLEY [Peptide 367] |  |  |  | Binding to DRB1*0401 [4]: −
20 | NLVPMVATV [reference compound] |  |  |  | Number of donors recognizing the epitope ([5]; HLA A2 donors): 9 out of 10; Frequency in screen (number of refinding/number of donors' expressing the respective HLA type) [5]: 8/9

Row | Sequence | Binding to DRB1 *0401 ([1]; soluble DRB1*0401 molecules) | DRB1*0401 mice CD4+ (T cell response) [3, 6] | DRB1*0401 mice total SC (T cell response) [3, 7] | further results
21 | RKTPRVTGGGAMAGA [Peptide 415] |  |  |  | Recognition by T cells in HLA context other than described [5]: recognized by T cells in a different HLA context than known before
22 | NFAGIEAAASAIQGNV [Peptide 1238] |  |  |  | DR4 binding [1, 8]: −
23 | IHNPAVFTWPPWQAG [Peptide 476] |  |  |  | Induction of IFN-gamma secretion in T cells / PBMC from CMV seropositive donors [5]: can induce functional, IFN-gamma secreting T cells in humans
24 | QNLKYQEFFWDANDI [Peptide 506] | − | +/− | ++ | Induction of IFN-gamma secretion in T cells / PBMC from CMV seropositive donors [5]: can induce functional, IFN-gamma secreting T cells in humans
25 | DVYYTSAFVFPTKDV [Peptide 179] | + | + | + | Binding to DRB1*0401 [2]: +
26 | VQGQNLKYQEFFWDA [Peptide 503] |  |  |  | Induction of IFN-gamma secretion in T cells / PBMC from CMV seropositive donors [5]: can induce functional, IFN-gamma secreting T cells in humans
27 | LILVSQYTPDSTPCH [Peptide 55] | + | + | ++ | Binding to DRB1*0401 [2]: +
28 | ARNLVPMVATVQGQN [Peptide 493] |  |  |  | Reactivity, induction of IFN-gamma secretion ([5]; donor 10736, single peptides, secondary screen (FIG. 9)): inducers of IFN-gamma secretion
29 | WDRHDEGAAQGDDDV [Peptide 385] | − | − | − | Binding to DRB1*0401 [4]: −
30 | PFMRPHERNGFTVLC [Peptide 262] |  |  |  | Recognition by T cells in HLA context other than described [5]: recognized by T cells in a different HLA context than known before
31 | QGQNLKYQEFFWDAN [Peptide 504] | − | − | − | 
32 | VMTRGRLKAESTVAP [Peptide 450] | + | ++ | + | Binding to DRB1*0401 [2]: +
33 | IDELKTNSSLLTSILTYHVV [Peptide 1235] |  |  |  | DR4 binding [1, 8]: −
34 | QGDDDVWTSGSDSDE [Peptide 394] |  |  |  | Recognition by T cells in HLA context other than described [5]: recognized by T cells in a different HLA context than known before
35 | PAVFTWPPWQAGILA [Peptide 479] |  |  |  | Induction of IFN-gamma secretion in T cells / PBMC from CMV seropositive donors [5]: can induce functional, IFN-gamma secreting T cells in humans
36 | LLQRGPQYSEHPTFT [Peptide 356] |  | +/− | +/− | 
37 | HNPAVFTWPPWQAGI [Peptide 477] |  |  |  | Induction of IFN-gamma secretion in T cells / PBMC from CMV seropositive donors [5]: can induce functional, IFN-gamma secreting T cells in humans
38 | YTSAFVFPTKDVALR [Peptide 182] |  | +/− | +/− | 
39 | YQEFFWDANDIYRIF [Peptide 510] | − | ++ | ++ | Binding to DRB1*0401 [4]: −
40 | GVSTANATVYMIDSVL [Peptide 1237] |  |  |  | DR4 binding [1, 8]: ++

Row | Sequence | Binding to DRB1 *0401 ([1]; soluble DRB1*0401 molecules) | DRB1*0401 mice CD4+ (T cell response) [3, 6] | DRB1*0401 mice total SC (T cell response) [3, 7] | further results
41 | KYQEFFWDANDIYRI [Peptide 509] |  |  |  | Binding to DRB1 *0401 [1]: −; DRB1*0401 mice CD4+ (T cell response) ([3]; mouse, in vivo): ++; DRB1*0401 mice total SC (T cell response) ([3]; mouse, in vivo, sc): ++
42 | RHTWDRHDEGAAQGD [Peptide 382] | − | − | − | Binding to DRB1*0401 [4]: −
43 | GDDDVWTSGSDSDEE [Peptide 395] |  |  |  | Recognition by T cells in HLA context other than described [5]: recognized by T cells in a different HLA context than known before
44 | ATKMQVIGDQYVKVY [Peptide 213] |  |  |  | Induction of IFN-gamma secretion in T cells / PBMC from CMV seropositive donors [5]: can induce functional, IFN-gamma secreting T cells in humans
45 | VSDLKSSTAVIPGYPV [Peptide 1240] |  |  |  | DR4 binding [1, 8]: +
46 | KTPRVTGGGANAGAS [Peptide 416] |  |  |  | Recognition by T cells in HLA context other than described [5]: recognized by T cells in a different HLA context than known before
47 | GQNLKYQEFFWDAND [Peptide 505] | − | − | + | 
48 | SGVMTRGRLKAESTV [Peptide 448] | − | − | +/− | Binding to DRB1*0401 [4]: −
49 | VTTERKTPRVTGGGA [Peptide 411] |  |  |  | Recognition by T cells in HLA context other than described [5]: recognized by T cells in a different HLA context than known before
50 | AETPGCVAYIGISFLDQ [Peptide 1239] |  |  |  | DR4 binding [1, 8]: −
51 | YYTSAFVFPTKDVAL [Peptide 181] | − | +/− | + | 
52 | RLKAESTVAPEEDTD [Peptide 455] | + | +/− | +/− | Binding to DRB1*0401 [4]: −
53 | RQQNQWKEPDVYYTS [Peptide 170] |  |  |  | Binding to DRB1*0401 [4]: −
54 | LQRGPQYSEHPTFTS [Peptide 357] |  |  |  | DRB1*0401 mice CD4+ (T cell response) ([3]; mouse, in vivo): +/−; DRB1*0401 mice total SC (T cell response) ([3]; mouse, in vivo, sc): +
55 | STPCHRGDNQLQVQH [Peptide 65] | − | − | − | Binding to DRB1*0401 [4]: −
56 | TKMQVIGDQYVKVYL [Peptide 214] |  |  |  | Induction of IFN-gamma secretion in T cells / PBMC from CMV seropositive donors [5]: can induce functional, IFN-gamma secreting T cells in humans
57 | YPKYVKQNTLKLAT [HA306-318, reference compound] |  |  |  | DR4 binding [1]: ++
58 | SLILVSQYTPDSTPC [Peptide 54] | − | +/− | − | Binding to DRB1*0401 [4]: −
59 | TGSGAGIAQAAAGTV [Peptide 1236] |  |  |  | DR4 binding [1, 8]: +

From patent US20050221381A1, “Method for isolating ligands” (priority 2002, published 2005)
